Measurements from PubChem BioAssay (NCI).
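Method: 48-hour compound exposure of cells in 96-well plates, five concentrations, linear interpolation of endpoints. GI50 = concentration required for 50% inhibition of growth. TGI: total growth inhibition.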 Activity calls are given as the source filed them. Rule as the data show it: active = GI50 below about 0.43 µM; inactive = the rest.

Tests used:
Assay in all cases: inhibition of tumour cell growth, NCI panel, 48 h
[1] = system: K-562 leukemia
[2] = system: HOP-92 NSCLC
[3] = system: CCRF-CEM leukemia
[4] = system: CAKI-1 renal
[5] = system: HT29 colon
[6] = system: ACHN renal
[7] = system: SR leukemia
[8] = system: MOLT-4 leukemia
[9] = system: RPMI-8226 leukemia
[10] = system: EKVX NSCLC
[11] = system: SF-539 CNS
[12] = system: NCI-H23 lung
[13] = system: SN12C renal
[14] = system: T-47D breast
[15] = system: MDA-MB-231 breast
[16] = system: DU-145 prostate
[17] = system: UACC-257 melanoma
[18] = system: SF-268 CNS
[19] = system: NCI-H226 lung
[20] = system: SK-OV-3 ovarian
[21] = system: COLO 205 colon
[22] = system: A549 NSCLC
[23] = system: HCT-15 colon
[24] = system: HL-60(TB) leukemia
[25] = system: PC-3 prostate
[26] = system: OVCAR-5 ovarian
[27] = system: UO-31 renal
[28] = system: SW-620 colon
[29] = system: 786-0 renal
[30] = system: NCI-H522 lung
[31] = system: UACC-62 melanoma
[32] = system: OVCAR-8 ovarian
[33] = system: MCF7 breast
[34] = system: IGROV1 ovarian
[35] = system: LOX IMVI melanoma
[36] = system: SK-MEL-5 melanoma
[37] = system: HCC-2998 colon
[38] = system: A498 renal
[39] = system: BT-549 breast
[40] = system: RXF 393 renal
[41] = system: OVCAR-3 ovarian
[42] = system: SK-MEL-2 melanoma
[43] = system: U251 CNS
[44] = system: TK-10 renal
[45] = system: HCT-116 colon
[46] = system: SF-295 CNS
[47] = system: NCI/ADR-RES ovarian
[48] = system: KM12 colon
[49] = system: NCI-H460 lung
[50] = system: OVCAR-4 ovarian
[51] = system: HS 578T breast
[52] = system: M14 melanoma
[53] = system: HOP-62 NSCLC
[54] = system: SK-MEL-28 melanoma
[55] = system: SNB-75 CNS
[56] = system: SNB-19 CNS
[57] = system: MALME-3M melanoma
[58] = system: MDA-MB-435

COc1ccc2[nH]c3c(c2c1)CCN[C@]31CS[C@@H]2c3c(OC(C)=O)c(C)c4c(c3[C@H](COC1=O)N1[C@@H]2[C@H]2c3c(cc(C)c(OC)c3O)C[C@@H]([C@@H]1O)N2C)OCO4
TGI [1]: > 100 µM | TGI [2]: 0.0132 µM | TGI [3]: > 100 µM | TGI [4]: 1.68 µM | TGI [5]: > 100 µM | TGI [6]: 1.12 µM | TGI [7]: > 100 µM | TGI [8]: > 100 µM

O=c1c2ccccc2c(=O)c2c1c1[nH]c3ccccc3c1c1c(=O)c3ccccc3c(=O)c21
outcome [9]: inactive | outcome [7]: inactive | outcome [8]: inactive

COc1cccc2c1-c1c(c3ccc([N+](=O)[O-])cc3c(=O)n1CCCN)C2=O
GI50 [10]: 2.17 µM | TGI [10]: 5.08 µM | GI50 [11]: 1.52 µM | TGI [11]: 3.19 µM | GI50 [1]: 0.218 µM | TGI [1]: 1.12 µM | GI50 [12]: 1.39 µM | TGI [12]: 3.01 µM | GI50 [13]: 3.23 µM | TGI [13]: 9.07 µM | GI50 [14]: 1.52 µM | TGI [14]: 3.63 µM | GI50 [15]: 1.68 µM | TGI [15]: 3.41 µM | GI50 [16]: 1.06 µM | TGI [16]: 6.15 µM | GI50 [17]: 17.9 µM | TGI [17]: 44.4 µM | GI50 [18]: 1.15 µM | TGI [18]: 2.94 µM | GI50 [19]: 7.67 µM | TGI [19]: 34.3 µM | GI50 [20]: 11.5 µM | TGI [20]: 29.8 µM | GI50 [21]: 1.34 µM | TGI [21]: 3.07 µM | GI50 [22]: 11 µM | TGI [22]: 34.4 µM | GI50 [23]: 1.4 µM | TGI [23]: 3.37 µM | GI50 [24]: 1.62 µM | TGI [24]: 3.93 µM | GI50 [25]: 1.43 µM | TGI [25]: 4.03 µM | GI50 [26]: 1.88 µM | TGI [26]: 3.4 µM | GI50 [27]: 1.26 µM | TGI [27]: 2.59 µM | GI50 [28]: 0.459 µM | TGI [28]: 3.2 µM | GI50 [2]: 5.64 µM | TGI [2]: 13.3 µM | GI50 [29]: 0.479 µM | TGI [29]: 0.987 µM | GI50 [30]: 0.043 µM | TGI [30]: 1.89 µM | GI50 [31]: 1.89 µM | TGI [31]: 7.95 µM | GI50 [3]: 0.183 µM | TGI [3]: 4.76 µM | GI50 [32]: 1.5 µM | TGI [32]: 5.66 µM | GI50 [33]: 0.0486 µM | TGI [33]: 1.59 µM | GI50 [34]: 0.289 µM | TGI [34]: 1.99 µM | GI50 [35]: 1.2 µM | TGI [35]: 2.64 µM | GI50 [4]: 15.1 µM | TGI [4]: 62.7 µM | GI50 [36]: 1.91 µM | TGI [36]: 7.38 µM | GI50 [37]: 3.02 µM | TGI [37]: 7 µM | GI50 [38]: 15.7 µM | TGI [38]: 32.8 µM | GI50 [39]: 1.72 µM | TGI [39]: 3.61 µM | GI50 [5]: 1.24 µM | TGI [5]: 3.08 µM | GI50 [40]: 24.1 µM | TGI [40]: > 78.8 µM | GI50 [41]: 2.3 µM | TGI [41]: 5.71 µM | GI50 [42]: 1.58 µM | TGI [42]: 3 µM | GI50 [43]: 1.02 µM | TGI [43]: 2.23 µM | GI50 [44]: 2.81 µM | TGI [44]: 13.2 µM | GI50 [45]: 0.49 µM | TGI [45]: 2.25 µM | GI50 [6]: 0.884 µM | TGI [6]: 6.65 µM | GI50 [46]: 3.1 µM | TGI [46]: 14.8 µM | GI50 [47]: 3.99 µM | TGI [47]: 19.1 µM | GI50 [48]: 2.02 µM | TGI [48]: > 24.1 µM | GI50 [49]: 0.239 µM | TGI [49]: 1.94 µM | GI50 [50]: 1.55 µM | TGI [50]: 3.94 µM | GI50 [51]: 7.62 µM | TGI [51]: 18.7 µM | GI50 [9]: 1.65 µM | TGI [9]: 5.84 µM | GI50 [7]: 0.0256 µM | TGI [7]: 0.379 µM | GI50 [52]: 1.54 µM | TGI [52]: 3 µM | GI50 [53]: 1.13 µM | TGI [53]: 2.5 µM | GI50 [54]: 1.86 µM | TGI [54]: 3.81 µM | GI50 [55]: 5.76 µM | TGI [55]: 25.1 µM | GI50 [8]: 0.0293 µM | TGI [8]: 0.34 µM | GI50 [56]: 1.35 µM | TGI [56]: 2.93 µM

O=C(CCC(=O)CC(O)(C(F)(F)F)C(F)(F)F)CC(O)(C(F)(F)F)C(F)(F)F
TGI [10]: > 100 µM | TGI [11]: > 100 µM | TGI [1]: > 100 µM | TGI [12]: 95.8 µM | TGI [13]: > 100 µM | TGI [14]: > 100 µM | TGI [15]: > 100 µM | TGI [16]: > 100 µM | TGI [17]: > 100 µM | TGI [18]: > 100 µM | TGI [19]: 69.5 µM | TGI [20]: > 100 µM | TGI [21]: 96.3 µM | TGI [22]: > 100 µM | TGI [23]: > 100 µM | TGI [24]: 91.2 µM | TGI [26]: > 100 µM | TGI [27]: 59.3 µM | TGI [28]: > 100 µM | TGI [2]: 49.4 µM | TGI [29]: > 100 µM | TGI [31]: > 100 µM | TGI [3]: > 100 µM | TGI [32]: > 100 µM | TGI [33]: > 100 µM | TGI [34]: > 100 µM | TGI [57]: > 100 µM | TGI [36]: > 100 µM | TGI [37]: > 100 µM | TGI [58]: > 100 µM | TGI [38]: 67.4 µM | TGI [5]: > 100 µM | TGI [40]: > 100 µM | TGI [43]: > 100 µM | TGI [44]: > 100 µM | TGI [45]: > 100 µM | TGI [6]: > 100 µM | TGI [46]: > 100 µM | TGI [47]: > 100 µM | TGI [48]: > 100 µM | TGI [50]: > 100 µM | TGI [51]: > 100 µM | TGI [9]: 97.8 µM | TGI [7]: > 100 µM | TGI [52]: > 100 µM | TGI [53]: > 100 µM | TGI [54]: > 100 µM | TGI [55]: > 100 µM | TGI [8]: > 100 µM | TGI [56]: 72.4 µM
